Reference: patent publication US20190201721A1, “ORAL CARE PRODUCTS AND METHODS COMPRISING HYDROXYAPATITE BINDING PROTEINS” (BASF SE, priority 2015, published 2019)

B1: AFP4-His6 (protein)
chain: MRFIVSLLAFTAAATATALPASAAKNAKLATSAAFAKQAEGTTCNVGSIACCNSPAETNNDSLLSGLLGAGLLNGLSGNTGSACAKASLIDQLGLLALVDHTEEGPVCKNIVACCPEGTTNCVAVDNAGAGTKAE
modifications: His6 tag
B2: IPTLPSS-GGG-AFP4-His6 (protein)
chain: MKFSIAAAVVAFAASVAALPPAHDSQFAGNGVGNKGNSNVKFPVPENVTVKQASDKCGDQAQLSCCNKATYAGDTTTVDEGLLSGALSGLIGAGSGAEGLGLFDQCSKLDVAVLIGIQDLVNQKCKQNIACCQNSPSSADGNLIGVGLPCVALGSIL
notes: fusion of HABP peptide IPTLPSS via GGG spacer to antifreeze protein AFP4-His6

system: not listed separately; assay: Binding to and release from calcium phosphate discs (HA-discs) after saliva incubation; conditions: read out by TRPM8 activation of the supernatant
Experimental: The hybrid molecules of example 4 (5 μM in Tris buffer pH 8) were incubated with calcium phosphate discs (HA-discs from Himed) at 37° C. for 1 hr. Unbound molecules were removed by washing 3-times with Tris buffer. The coated calcium phosphate discs were incubated with buffer as a control and in parallel with pooled human saliva (5 donors; 37° C., for 2 hrs). The supernatant was centrifuged and evaluated for cooling activity by specific activation of human cool receptor TRPM8.
The agonisation or antagonisation of the receptor was quantified by means of a Ca^2+-sensitive dye (e.g. FURA, Fluo-4, etc.). Agonists on their own bring about an increase in the Ca^2+-signal; antagonists in the presence of, for example, menthol bring about a reduction in the Ca^2+-signal (in each case detected by means of the Fluo-4 dye, which due to the Ca^2+ has other fluorescent properties). To begin with, in a manner known per se, in cell culture flasks a fresh culture of transformed HEK cells was prepared. […] Addition of the test samples in quantities of 50 μl/well and measurement of the change in fluorescence (e.g. in the FLIPR assay device, Molecular Devices or NovoStar, BMG) at 485 nm excitation, 520 nm emission, and evaluation of the effective strength of the various substances/concentrations and determination of the EC50 values. […]

With `CC1CCC(C(C)C)C(O)C1` (centres unmarked) [menthol] as the molecule, how does the “bound on hydroxyapatite / released after incubation with human saliva” value read?
The value was “nothing is bound on hydroxyapatite”.

biological target: T1, human TRPM8 receptor (Homo sapiens, UniProt Q7Z2W7); assay: Assay on TRPM8 activation (HEK293-TRPM8 cells, Ca2+-sensitive dye Fluo-4); format: cell-based; conditions: before and after incubation with saliva
T1 construct: expressed in transfected cells; host or cells: HEK293-TRPM8 (transformed HEK cells, tetracycline-inducible expression)
T1 sequence (Q7Z2W7 whole entry): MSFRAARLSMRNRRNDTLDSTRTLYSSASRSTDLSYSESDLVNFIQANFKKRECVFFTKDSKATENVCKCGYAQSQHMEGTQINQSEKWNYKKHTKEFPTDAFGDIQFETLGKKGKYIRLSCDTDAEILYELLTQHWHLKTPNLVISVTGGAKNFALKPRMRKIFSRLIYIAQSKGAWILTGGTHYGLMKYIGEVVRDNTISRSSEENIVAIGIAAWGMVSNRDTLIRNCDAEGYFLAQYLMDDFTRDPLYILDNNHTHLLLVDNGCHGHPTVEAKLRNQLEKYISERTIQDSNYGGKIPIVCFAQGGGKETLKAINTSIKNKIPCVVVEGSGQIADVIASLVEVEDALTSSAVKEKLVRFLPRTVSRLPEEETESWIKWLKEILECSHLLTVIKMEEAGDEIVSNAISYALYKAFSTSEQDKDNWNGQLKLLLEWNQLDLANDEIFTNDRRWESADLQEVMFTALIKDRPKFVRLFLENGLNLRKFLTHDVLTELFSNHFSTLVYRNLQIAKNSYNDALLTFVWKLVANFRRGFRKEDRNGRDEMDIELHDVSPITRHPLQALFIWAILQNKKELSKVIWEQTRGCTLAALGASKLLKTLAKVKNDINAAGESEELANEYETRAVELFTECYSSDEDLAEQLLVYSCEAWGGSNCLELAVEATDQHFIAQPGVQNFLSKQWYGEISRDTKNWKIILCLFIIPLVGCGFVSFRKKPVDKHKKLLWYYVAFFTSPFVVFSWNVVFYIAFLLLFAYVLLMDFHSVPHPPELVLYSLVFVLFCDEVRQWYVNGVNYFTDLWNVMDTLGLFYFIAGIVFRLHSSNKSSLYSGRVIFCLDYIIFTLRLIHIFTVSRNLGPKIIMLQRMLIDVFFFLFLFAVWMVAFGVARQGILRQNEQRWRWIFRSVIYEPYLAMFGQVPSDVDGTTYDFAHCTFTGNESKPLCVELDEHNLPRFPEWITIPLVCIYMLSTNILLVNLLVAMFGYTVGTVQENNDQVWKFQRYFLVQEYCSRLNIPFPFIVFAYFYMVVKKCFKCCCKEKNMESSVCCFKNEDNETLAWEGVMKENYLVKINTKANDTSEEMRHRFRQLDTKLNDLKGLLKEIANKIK
Experimental: The HABP peptide—cooling compound-hybrid molecules of example 4 (1 μM in Tris buffer pH 8) were incubated with pooled human saliva (5 donors) 1:1 or as reference 1:1 in Tris buffer pH 8; 37° C., for 2 hrs at 37° C. Samples were frozen until evaluation in a cell based assay for activation of the human TRPM8 receptor.
The agonisation or antagonisation of the receptor was quantified by means of a Ca^2+-sensitive dye (e.g. FURA, Fluo-4, etc.). […] To begin with, in a manner known per se, in cell culture flasks a fresh culture of transformed HEK cells was prepared. […] Addition of the test samples in quantities of 50 μl/well and measurement of the change in fluorescence (e.g. in the FLIPR assay device, Molecular Devices or NovoStar, BMG) at 485 nm excitation, 520 nm emission, and evaluation of the effective strength of the various substances/concentrations and determination of the EC50 values.

Which “bioactivity on the human cool receptor TRPM8” value does the source give for `CC1CCC(C(C)C)C(O)C1` (centres unmarked) [menthol] here?
Its value is “bioactive”.

system: not listed separately; assay: Binding assay of carboxyfluorescein-labeled peptides/proteins to hydroxyapatite powder; conditions: 2 μM N-terminal labeled peptide/protein, 10 mg hydroxyapatite powder, HBS-T buffer, 2 h, 37° C.
Experimental: i. Petide/Protein Labeling For binding studies 5(6)-carboxyfluorescein was conjugated to the N-terminus of the peptides/proteins by using the corresponding succinimidyl ester (Invitrogen, Darmstadt, Germany). The labeling reaction was performed according to the manufactures protocol (Invitrogen, Darmstadt, Germany). After conjugation, the labeled peptide/protein was purified either with a PD-10 desalting column for proteins larger than 5 kDa or a PD MidiTrap G-10 for smaller proteins (GE Healthcare, Buckinghamshire, UK) or for peptides by HPLC on RP18 column. ii. Peptide/Protein Binding For the binding experiments N-terminal labeled peptides/proteins were used in a final concentration of 2 μM. The binding was carried out in HBS-T buffer (150 mM NaCl, 50 mM HEPES pH 7.5, 0.1% Tween 20). The peptides/proteins were exposed to 10 mg hydroxyapatite powder (Fluke) for 2 h at 37° C. After five wash steps with HBS-T buffer the bound peptide/protein was visualized by fluorescence microscopy with the appropriate filters (excitation 475/50; emission 525/50). To quantify the binding, the fluorescence intensity of the solution before (Fi) and after (Ff) binding was measured with a Fluostar Galaxy (BMG, Ortenberg, Germany) and the amount of bound peptide/protein was estimated (cbound=[1−(Ff/Fi)]×c0). The peptide LIKHILHRL, which was described as a non-binding peptide to hydroxyapatite, was used as a negative control [Yarbrough D K, Hagerman E, Eckert R, He J, Choi H, Cao N, et al. Specific binding and mineralization of calcified surfaces by small peptides. Calcif Tissue Int 2010; 86(1):58-66.]. All binding experiments were carried out as triplicates. Evaluation: +: 30-50% bound peptide on HAP; ++: 50-100% bound peptide on HAP

For B1, which “bound peptide on HAP” value is on record?
Its value is “(35%)”.

For B2, which “bound peptide on HAP” value is on record?
Its value is “(60%)”.

same assay, conditions: 2 μM N-terminal labeled peptide/protein, 10 mg hydroxyapatite powder, HBS-T buffer, 2 h, 37° C., triplicates

For EHITTSN [SEQ ID NO: 9], which “bound peptide on HAP (evaluation class)” value is on record?
Its value is “+ (+: 30-50% bound peptide on HAP)”.

For GKVQAQS [SEQ ID NO: 5], which “bound peptide on HAP (evaluation class)” value is on record?
The value was “+ (+: 30-50% bound peptide on HAP)”.

With GSPATAA [SEQ ID NO: 4] as the molecule, how does the “bound peptide on HAP (evaluation class)” value read?
Its value is “+ (+: 30-50% bound peptide on HAP)”.

With HPPLHHA [SEQ ID NO: 2] as the molecule, how does the “bound peptide on HAP (evaluation class)” value read?
Its value is “+ (+: 30-50% bound peptide on HAP)”.

Which “bound peptide on HAP (evaluation class)” value does the source give for IDDYTRA [SEQ ID NO: 1] here?
Its value is “++ (++: 50-100% bound peptide on HAP)”.

With IPITNLR [SEQ ID NO: 11] as the molecule, how does the “bound peptide on HAP (evaluation class)” value read?
Its value is “+ (+: 30-50% bound peptide on HAP)”.

For IPTLPSS [SEQ ID NO: 7], which “bound peptide on HAP (evaluation class)” value is on record?
The value was “++ (++: 50-100% bound peptide on HAP)”.

With MQTVEVT [SEQ ID NO: 14] as the molecule, how does the “bound peptide on HAP (evaluation class)” value read?
The value was “+ (+: 30-50% bound peptide on HAP)”.

Which “bound peptide on HAP (evaluation class)” value does the source give for NERALTL [SEQ ID NO: 13] here?
The value was “+ (+: 30-50% bound peptide on HAP)”.

For RILITIP [SEQ ID NO: 10], which “bound peptide on HAP (evaluation class)” value is on record?
The value was “+ (+: 30-50% bound peptide on HAP)”.

For SPSTHWK [SEQ ID NO: 3], which “bound peptide on HAP (evaluation class)” value is on record?
The value was “+ (+: 30-50% bound peptide on HAP)”.

For SWGTQTD [SEQ ID NO: 15], which “bound peptide on HAP (evaluation class)” value is on record?
Its value is “+ (+: 30-50% bound peptide on HAP)”.

Which “bound peptide on HAP (evaluation class)” value does the source give for TLPASSV [SEQ ID NO: 16] here?
Its value is “++ (++: 50-100% bound peptide on HAP)”.

Which “bound peptide on HAP (evaluation class)” value does the source give for TTSTRHI [SEQ ID NO: 12] here?
The value was “+ (+: 30-50% bound peptide on HAP)”.

Which “bound peptide on HAP (evaluation class)” value does the source give for YPVTPSI [SEQ ID NO: 6] here?
Its value is “+ (+: 30-50% bound peptide on HAP)”.

For YQGASEN [SEQ ID NO: 8], which “bound peptide on HAP (evaluation class)” value is on record?
The value was “++ (++: 50-100% bound peptide on HAP)”.

For B1, which “bound peptide on HAP (evaluation class)” value is on record?
The value was “+ (+: 30-50% bound peptide on HAP)”.

For B2, which “bound peptide on HAP (evaluation class)” value is on record?
The value was “++ (++: 50-100% bound peptide on HAP)”.

system: not given; assay: not given; conditions: described by Yarbrough et al. 2010; used as negative control; cited from earlier work

For LIKHILHRL, which “binding to hydroxyapatite as described in literature” value is on record?
The value was “non-binding”.
